{
  "source": "patent US20230338362A1",
  "about": "(priority 2020, published 2023)",
  "key": {"[1]": {"test_system": "macrophages treated with SARS-CoV-2 Spike protein", "assay_type": "cell-based, human"}, "[2]": {"test_system": "macrophages treated with SARS-CoV-2 Spike protein", "assay_type": "cell-based, human", "remark": "listed apart in the source"}, "[3]": {"test_system": "IRAK1, NF-κB, MAPKs, IRAK4 (MyD88 signaling)", "assay": "MyD88 signaling in human macrophages", "assay_type": "cell-based"}, "[4]": {"test_system": "SARS-CoV-2", "assay": "SARS-CoV-2 inhibition, cell viability assay (CellTiter-Glo) in VERO-E6 cells enriched for ACE-2", "assay_type": "cell-based"}, "[5]": {"test_system": "VERO-E6 cells enriched for angiotensin converting enzyme 2 receptor (ACE-2)", "assay": "In vitro toxicity, cell viability assay in VERO-E6 cells in the absence of virus", "conditions": "Table I, positive controls; absence of SARS-CoV-2 virus"}, "[6]": {"test_system": "SARS-CoV", "assay_type": "cell-based"}, "[7]": {"test_system": "MERS-CoV", "assay_type": "cell-based"}, "[8]": {"test_system": "common cold coronavirus", "assay": "In vitro activity against common cold coronaviruses, methods analogous to Example 1", "assay_type": "cell-based"}, "[9]": {"test_system": "Influenza A", "assay": "In vitro activity against Influenza A, methods analogous to Example 1", "assay_type": "cell-based"}, "[10]": {"test_system": "Influenza B", "assay": "In vitro activity against Influenza B, methods analogous to Example 1", "assay_type": "cell-based"}, "[11]": {"conditions": "human macrophages, through interaction with MyD88"}, "[12]": {"conditions": "Severe acute respiratory syndrome coronavirus 2, Vero C1008, Table II, antiviral compounds, VERO-E6 cells enriched for ACE-2 plus SARS-CoV-2, read-out: IC50"}, "[13]": {"conditions": "Severe acute respiratory syndrome coronavirus 2, Vero C1008, read-out: IC50 in an in vitro inhibition assay against SARS-CoV-2"}},
  "note": "Like-named read-outs stand apart in the source and are kept apart here. Peptide text beside a SMILES is read from it. * marks the point of attachment. Cbz = O=C(OCc1ccccc1)*; CH2F = FC*; on anti-inflammatory cytokines: test concentration or dose not given here; on apoptosis by activation of caspase 3: test concentration or dose not given here; on apoptosis by caspase 3 activation: test concentration or dose not given here; on expression of cytokine modulators / anti-inflammatory cytokines: test concentration or dose not given here; on expression of pro-inflammatory cytokines: test concentration or dose not given here; on expression of the anti-inflammatory cytokine IL-10: test concentration or dose not given here; on multiple pro-inflammatory cytokines: test concentration or dose not given here; on pro-inflammatory cytokines: test concentration or dose not given here",
  "data": [
    {"smiles": "O=C(OC[C@H]1O[C@@H](OC(=O)c2cc(O)c(O)c(O)c2)[C@H](OC(=O)c2cc(O)c(O)c(O)c2)[C@@H](OC(=O)c2cc(O)c(O)c(O)c2)[C@@H]1OC(=O)c1cc(O)c(O)c(O)c1)c1cc(O)c(O)c(O)c1", "values": [
      {"measurement": "anti-inflammatory cytokines", "setting": "[1]", "value": "inducing anti-inflammatory cytokines such as IL-10"},
      {"measurement": "expression of cytokine modulators / anti-inflammatory cytokines", "setting": "[1]", "value": "activated expression of cytokine modulators IL-10 and IFN-γ"},
      {"measurement": "expression of pro-inflammatory cytokines", "setting": "[1]", "value": "inhibited expression of pro-inflammatory cytokines IL-1α, VEGF, IL-1β, IL-2, IL-4, IL-5, IL-6, IL-8, IL-12p70, IL-13, GM-CSF, GRO, MCP-1, MIP-1α, MIP-1β, MMP-9, RANTES, and TNF-α"},
      {"measurement": "expression of the anti-inflammatory cytokine IL-10", "setting": "[1]", "value": "increasing expression of the anti-inflammatory cytokine IL-10"},
      {"measurement": "multiple pro-inflammatory cytokines", "setting": "[1]", "value": "suppressed multiple pro-inflammatory cytokines such as IL-1β, TNF-α, IL-6 IL-8, IL-12, MCP-1 and MIP-1α"},
      {"measurement": "pro-inflammatory cytokines", "setting": "[1]", "value": "selectively inhibited pro-inflammatory cytokine, such as IL-1α, VEGF, IL-1β, IL-2, IL-4, IL-5, IL-6, IL-8, IL-12p70, IL-13, GM-CSF, GRO, MCP-1, MIP-1α, MIP-1β, MMP-9, RANTES, and TNF-α"},
      {"measurement": "apoptosis by activation of caspase 3", "setting": "[2]", "value": "selectively induces apoptosis"},
      {"measurement": "apoptosis by caspase 3 activation", "setting": "[2]", "value": "not observed to induce apoptosis"},
      {"measurement": "NF-κB translocation into the nucleus", "setting": "[3]", "value": "inhibited NF-κB translocation into the nucleus"},
      {"measurement": "activation of IRAK1, NF-κB, and MAPKs", "setting": "[3]; [11]", "value": "potently reduced the activation of IRAK1, NF-κB, and MAPKs"},
      {"measurement": "expression of IRAK4", "setting": "[3]; [11]", "value": "increasing expression of IRAK4"}
    ]},
    {"smiles": "CC(C)C[C@H](NC(=O)OCc1ccccc1)C(=O)N[C@@H](CC(C)C)C(=O)N[C@@H](Cc1ccc(O)cc1)C(=O)CF", "note": "[Calpain Inhibitor IV, reference compound] (Cbz-Leu-Leu-Tyr-CH2F)", "values": [
      {"measurement": "IC50", "setting": "[4]; Table I, positive controls, VERO-E6 cells enriched for ACE-2 plus SARS-CoV-2, read-out: IC50", "value": 0.12, "unit": "µM"},
      {"measurement": "CC50", "setting": "[5]", "value": "> 7.17", "unit": "µM"}
    ]},
    {"smiles": "CCN(CC)CCCC(C)Nc1ccnc2cc(Cl)ccc12", "note": "(centres unmarked) [Chloroquine, chloroquine, reference compound]", "values": [
      {"measurement": "CC50", "setting": "[5]", "value": "> 30", "unit": "µM"}
    ]},
    {"smiles": "CCOC(=O)[C@H]1O[C@@H]1C(=O)N[C@@H](CC(C)C)C(=O)NCCC(C)C", "note": "[E64d (aloxistatin), aloxistatin, reference compound]", "values": [
      {"measurement": "CC50", "setting": "[5]", "value": "> 30", "unit": "µM"}
    ]},
    {"smiles": "COc1ccc2cc1Oc1ccc(cc1)C[C@H]1c3cc(c(OC)cc3CCN1C)Oc1c(O)c(OC)cc3c1[C@H](C2)N(C)CC3", "note": "[Fangchinoline, (1S,14S)-9,20,25-trimethoxy-15,30-dimethyl-7,23-dioxa-15,30-diazaheptacyclo[22.6.2.2^3,6.1^8,12.1^14,18.0^27,31.0^22,33]hexatriaconta-3(36),4, 6(35),8,10,12(34),18,20,22(33),24,26,31-dodecaen-21-ol]", "values": [
      {"measurement": "IC50", "setting": "[4]; [12]", "value": 2.05, "unit": "µM"},
      {"measurement": "IC50", "setting": "[4]; [13]", "value": 2.05, "unit": "µM"},
      {"measurement": "activity against SARS-CoV", "setting": "[6]", "value": "active"},
      {"measurement": "activity against MERS-CoV", "setting": "[7]", "value": "active"},
      {"measurement": "activity against common cold coronavirus", "setting": "[8]", "value": "active"},
      {"measurement": "activity against Influenza A", "setting": "[9]", "value": "active"},
      {"measurement": "activity against Influenza B", "setting": "[10]", "value": "active"},
      {"measurement": "expression of pro-inflammatory cytokines", "setting": "[1]", "value": "inhibited expression of pro-inflammatory cytokines VEGF, IL-8, MIP-1β and MMP-9"},
      {"measurement": "pro-inflammatory cytokines", "setting": "[1]", "value": "selectively inhibited pro-inflammatory cytokines, such as VEGF, IL-8, GRO, MIP-1β and MMP-9"},
      {"measurement": "apoptosis by activation of caspase 3", "setting": "[2]", "value": "selectively induces apoptosis"},
      {"measurement": "apoptosis by caspase 3 activation", "setting": "[2]", "value": "induced apoptosis"}
    ]},
    {"smiles": "COc1cc(O)cc(O)c1C(=O)/C=C/c1ccc(O)cc1", "note": "[Helichrysetin, (E)-1-(2,4-dihydroxy-6-methoxyphenyl)-3-(4-hydroxyphenyl)prop-2-en-1-one]", "values": [
      {"measurement": "IC50", "setting": "[4]; [12]", "value": 10.4, "unit": "µM"},
      {"measurement": "IC50", "setting": "[4]; [13]", "value": 10.4, "unit": "µM"},
      {"measurement": "activity against SARS-CoV", "setting": "[6]", "value": "active"},
      {"measurement": "activity against MERS-CoV", "setting": "[7]", "value": "active"},
      {"measurement": "activity against common cold coronavirus", "setting": "[8]", "value": "active"},
      {"measurement": "activity against Influenza A", "setting": "[9]", "value": "active"},
      {"measurement": "activity against Influenza B", "setting": "[10]", "value": "active"},
      {"measurement": "anti-inflammatory cytokines", "setting": "[1]", "value": "inducing anti-inflammatory cytokines such as IL-10"},
      {"measurement": "expression of cytokine modulators / anti-inflammatory cytokines", "setting": "[1]", "value": "activated expression of cytokine modulator IL-10"},
      {"measurement": "expression of pro-inflammatory cytokines", "setting": "[1]", "value": "inhibited expression of pro-inflammatory cytokines IL-1α, VEGF, IL-1β, IL-4, IL-5, IL-6, IL-8, IL-12p70, IL-13, MCP-1, MIP-1α, MIP-1β, MMP-9 and TNF-α"},
      {"measurement": "pro-inflammatory cytokines", "setting": "[1]", "value": "selectively inhibited pro-inflammatory cytokine, such as IL-1α, VEGF, IL-1β, IL-4, IL-5, IL-6, IL-8, IL-12p70, IL-13, MCP-1, MIP-1α, MIP-1β, MMP-9 and TNF-α"},
      {"measurement": "apoptosis by activation of caspase 3", "setting": "[2]", "value": "selectively induces apoptosis"},
      {"measurement": "apoptosis by caspase 3 activation", "setting": "[2]", "value": "not observed to induce apoptosis"}
    ]},
    {"smiles": "CCN(CCO)CCCC(C)Nc1ccnc2cc(Cl)ccc12", "note": "(centres unmarked) [Hydroxychloroquine, hydroxychloroquine, reference compound]", "values": [
      {"measurement": "CC50", "setting": "[5]", "value": "> 30", "unit": "µM"}
    ]},
    {"smiles": "CCC(CC)COC(=O)[C@H](C)N[P@](=O)(OC[C@H]1O[C@@](C#N)(c2ccc3c(N)ncnn23)[C@H](O)[C@@H]1O)Oc1ccccc1", "note": "[Remdesivir, remdesivir, reference compound]", "values": [
      {"measurement": "CC50", "setting": "[5]", "value": "> 30", "unit": "µM"}
    ]}
  ]
}
